What follows are compounds tested against Recombinant human c-KIT kinase (Homo sapiens (Human), UniProt P10721) (assay: c-KIT kinase chemiluminescence assay (ADP-Glo)). Details: ATP 50 μM.
Format: biochemical
Method in brief: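 Recombinant human c-KIT preincubated 30 min at RT in 40 mM Tris pH 7.5, 20 mM MgCl2, 0.1 mg/mL BSA, 50 μM DTT, then reacted 2 h at RT with ATP and polyEY substrate. ADP-Glo luminescence readout; activity normalized to high/low controls, IC50 and Hill coefficient from inhibitor-versus-normalized-response fit.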

Recombinant human c-KIT kinase, sequence (P10721 26-976): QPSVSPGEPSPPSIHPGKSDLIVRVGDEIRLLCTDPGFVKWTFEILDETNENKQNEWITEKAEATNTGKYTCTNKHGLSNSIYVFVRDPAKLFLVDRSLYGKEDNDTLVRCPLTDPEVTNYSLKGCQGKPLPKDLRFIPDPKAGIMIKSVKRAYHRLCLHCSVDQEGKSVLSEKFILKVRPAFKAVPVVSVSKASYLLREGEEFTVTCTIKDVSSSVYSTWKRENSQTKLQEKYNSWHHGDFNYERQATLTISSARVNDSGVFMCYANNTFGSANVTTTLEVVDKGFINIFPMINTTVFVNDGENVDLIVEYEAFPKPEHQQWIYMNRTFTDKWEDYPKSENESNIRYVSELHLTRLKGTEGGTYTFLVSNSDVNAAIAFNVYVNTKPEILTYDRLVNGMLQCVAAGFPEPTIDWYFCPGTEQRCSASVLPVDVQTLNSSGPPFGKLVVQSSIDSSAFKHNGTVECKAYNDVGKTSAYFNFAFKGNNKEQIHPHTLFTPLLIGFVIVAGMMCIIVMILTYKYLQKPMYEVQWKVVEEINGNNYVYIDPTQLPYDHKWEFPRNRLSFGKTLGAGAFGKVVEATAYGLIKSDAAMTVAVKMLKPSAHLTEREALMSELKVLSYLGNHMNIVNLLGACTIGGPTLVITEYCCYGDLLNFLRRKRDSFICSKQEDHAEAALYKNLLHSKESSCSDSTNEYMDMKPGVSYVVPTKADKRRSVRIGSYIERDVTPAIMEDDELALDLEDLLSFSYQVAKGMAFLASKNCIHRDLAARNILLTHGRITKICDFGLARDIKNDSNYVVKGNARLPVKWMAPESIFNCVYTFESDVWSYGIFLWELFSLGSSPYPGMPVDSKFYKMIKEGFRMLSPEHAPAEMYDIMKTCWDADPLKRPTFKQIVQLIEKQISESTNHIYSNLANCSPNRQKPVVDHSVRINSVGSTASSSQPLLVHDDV

IC50 [µM] | Compound
0.1 to 1 | Cc1ccc(-c2noc([C@H]3C[C@@H]3F)n2)cc1NC(=O)c1cnc(-c2ccc3c(c2)oc(=O)n3C)o1 [Example 308-35]
< 0.1 | Cc1ccc(-c2noc([C@H]3C[C@@H]3F)n2)cc1NC(=O)c1cnn2ccc(-c3cncnc3)cc12 [Example 154]
> 1 | Cc1ncc(-c2nnnn2C)cc1NC(=O)c1cnn2ccc(N3CC4(C3)CC(O)(C(F)F)C4)cc12 [Example 312-1]
< 0.1 | Cc1ccc(-c2ncc(OC(F)F)cn2)cc1NC(=O)c1cnn2ccc(N3CC4(C3)CC(O)(C(F)F)C4)cc12 [Example 314]
> 1 | CC(=O)N1CCC(c2nc(-c3cnc(C)c(NC(=O)c4cnn5ccc(N6CC7(COC7)C6)cc45)c3)no2)CC1 [Example 281-75]
< 0.1 | Cc1ccc(-c2noc([C@H]3C[C@@H](OC(F)(F)F)C3)n2)cc1NC(=O)c1cnc(-c2ccc3c(c2)CC(=O)N3)o1 [Example 308-3]
0.1 to 1 | Cc1ccc(-c2noc([C@H]3C[C@@H]3F)n2)cc1NC(=O)c1cnc(-c2ccc3c(c2)O[C@H](C)CN3)o1 [Example 308-54]
0.1 to 1 | Cc1ccc(-c2noc([C@H]3C[C@@H]3F)n2)cc1NC(=O)c1cnn2ccc(-n3cc(NC(=O)OC(C)(C)C)cn3)cc12 [Example 236]
< 0.1 | Cc1sc(-c2ncc(C3CC3)cn2)cc1NC(=O)c1cnn2ccc(N3CC4(C3)CC(O)(C(F)F)C4)cc12 [Example 346]
< 0.1 | Cc1ccc(-c2noc([C@H]3C[C@@H]3F)n2)cc1NC(=O)c1cnn2ccc(-c3cnc(N)cc3C)cc12 [Example 171-28]
0.1 to 1 | O=C(Nc1cc(-c2noc([C@H]3C[C@@H]3F)n2)ccc1C(F)F)c1cnn2ccc(N3CC4(COC4)C3)cc12 [Example 281-116]
< 0.1 | O=C(Nc1cc(-c2noc([C@H]3C[C@@H](OC(F)F)C3)n2)ccc1Cl)c1cnn2ccc(N3CC4(COC4)C3)cc12 [Example 265]
< 0.1 | Cc1ccc(-c2noc([C@H]3C[C@@H]3F)n2)cc1NC(=O)c1cnn2ccc(-c3cn(C45CC(C(F)(F)F)(C4)C5)nn3)cc12 [Example 126]
< 0.1 | Cc1ncc(-c2noc([C@H]3C[C@@H](OC(F)(F)F)C3)n2)cc1NC(=O)c1cnn2cc(-c3cn(CCO)nn3)ccc12 [Example 132-9]
< 0.1 | Cc1ccc(-c2noc([C@H]3C[C@@H](C(F)(F)F)C3)n2)cc1NC(=O)c1cnn2ccc(N3CC4(COC4)C3)cc12 [Example 281-25]
< 0.1 | Cc1ccc(-c2noc([C@H]3C[C@@H]3F)n2)cc1NC(=O)c1cnn2ccc(O[C@H]3CCOC3)cc12 [Example 221]
0.1 to 1 | Cc1ncc(-c2ncc(C3CC3)cn2)cc1NC(=O)c1cnc(-c2ccc3c(c2)CC(=O)N3)o1 [Example 361]
0.1 to 1 | Cc1sc(-c2noc([C@H]3C[C@@H]3F)n2)cc1NC(=O)c1cnn2ccc(N3CC4(COC4)C3)cc12 [Example 281-117]
< 0.1 | Cc1ccc(-c2noc([C@H]3C[C@@H]3F)n2)cc1NC(=O)c1cnn2ccc(N3CCO[C@H](C)C3)cc12 [Example 214]
< 0.1 | Cc1ccc(-c2ncc(C3CC3)cn2)cc1NC(=O)c1cnn2ccc(N3CC4(COC4)C3)cc12 [Example 335]
0.1 to 1 | Cc1ccc(-c2noc([C@H]3C[C@@H]3F)n2)cc1NC(=O)c1cnc(-c2ccc3cn(C)nc3c2)o1 [Example 308-31]
< 0.1 | Cc1ccc(-c2noc([C@H]3C[C@H](OC(F)(F)F)C3)n2)cc1NC(=O)c1cnn2ccc(N3CC4(COC4)C3)cc12 [Example 245]
< 0.1 | Cc1ccc(-c2noc([C@H]3C[C@@H]3F)n2)cc1NC(=O)c1cnn2cc(-c3ccc(F)cc3)ccc12 [Example 149]
0.1 to 1 | Cc1ncc(-c2ccc3c(C(=O)Nc4cc(-c5noc([C@H]6C[C@@H]6F)n5)ccc4C)cnn3c2)c(C)n1 [Example 169]
0.1 to 1 | Cc1ncc(-c2noc([C@@H]3CN(C(=O)C(C)(F)F)[C@H]3C)n2)cc1NC(=O)c1cnn2ccc(N3CC4(C3)CC(O)(C(F)F)C4)cc12 [Example 281-13]
0.1 to 1 | Cc1ccc(-c2noc([C@H]3C[C@@H]3F)n2)cc1NC(=O)c1cnn(-c2ccccc2)c1 [Example 23]
< 0.1 | Cc1ccc(-c2noc([C@H]3C[C@@H]3F)n2)cc1NC(=O)c1cnn2ccc(N3CC4(CCN(CC(F)F)C4)C3)cc12 [Example 185]

These compounds were tested on M-07e cells (assay: M-07e cellular assay (SCF-mediated cell proliferation)). Details: Homo sapiens, 72 hours, CellTiter Glo.
Format: cell-based
Method in brief: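 CellTiter Glo luminescence after 72 h compound exposure in SCF (EC90)-stimulated M-07e cells expressing endogenous human c-KIT.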

Compound | EC50 [µM]
Cc1ccc(-c2noc([C@H]3C[C@@H]3F)n2)cc1NC(=O)c1cnc(-c2ccc3c(c2)oc(=O)n3C)o1 [Example 308-35] | 0.1 to 1
Cc1ccc(-c2noc([C@H]3C[C@@H]3F)n2)cc1NC(=O)c1cnn2ccc(-c3cncnc3)cc12 [Example 154] | < 0.1
Cc1ncc(-c2nnnn2C)cc1NC(=O)c1cnn2ccc(N3CC4(C3)CC(O)(C(F)F)C4)cc12 [Example 312-1] | > 1
Cc1ccc(-c2ncc(OC(F)F)cn2)cc1NC(=O)c1cnn2ccc(N3CC4(C3)CC(O)(C(F)F)C4)cc12 [Example 314] | < 0.1
CC(=O)N1CCC(c2nc(-c3cnc(C)c(NC(=O)c4cnn5ccc(N6CC7(COC7)C6)cc45)c3)no2)CC1 [Example 281-75] | > 1
Cc1ccc(-c2noc([C@H]3C[C@@H](OC(F)(F)F)C3)n2)cc1NC(=O)c1cnc(-c2ccc3c(c2)CC(=O)N3)o1 [Example 308-3] | < 0.1
Cc1ccc(-c2noc([C@H]3C[C@@H]3F)n2)cc1NC(=O)c1cnc(-c2ccc3c(c2)O[C@H](C)CN3)o1 [Example 308-54] | 0.1 to 1
Cc1ccc(-c2noc([C@H]3C[C@@H]3F)n2)cc1NC(=O)c1cnn2ccc(-n3cc(NC(=O)OC(C)(C)C)cn3)cc12 [Example 236] | 0.1 to 1
Cc1sc(-c2ncc(C3CC3)cn2)cc1NC(=O)c1cnn2ccc(N3CC4(C3)CC(O)(C(F)F)C4)cc12 [Example 346] | < 0.1
Cc1ccc(-c2noc([C@H]3C[C@@H]3F)n2)cc1NC(=O)c1cnn2ccc(-c3cnc(N)cc3C)cc12 [Example 171-28] | < 0.1
O=C(Nc1cc(-c2noc([C@H]3C[C@@H]3F)n2)ccc1C(F)F)c1cnn2ccc(N3CC4(COC4)C3)cc12 [Example 281-116] | 0.1 to 1
O=C(Nc1cc(-c2noc([C@H]3C[C@@H](OC(F)F)C3)n2)ccc1Cl)c1cnn2ccc(N3CC4(COC4)C3)cc12 [Example 265] | < 0.1
Cc1ccc(-c2noc([C@H]3C[C@@H]3F)n2)cc1NC(=O)c1cnn2ccc(-c3cn(C45CC(C(F)(F)F)(C4)C5)nn3)cc12 [Example 126] | < 0.1
Cc1ncc(-c2noc([C@H]3C[C@@H](OC(F)(F)F)C3)n2)cc1NC(=O)c1cnn2cc(-c3cn(CCO)nn3)ccc12 [Example 132-9] | < 0.1
Cc1ccc(-c2noc([C@H]3C[C@@H](C(F)(F)F)C3)n2)cc1NC(=O)c1cnn2ccc(N3CC4(COC4)C3)cc12 [Example 281-25] | < 0.1
Cc1ccc(-c2noc([C@H]3C[C@@H]3F)n2)cc1NC(=O)c1cnn2ccc(O[C@H]3CCOC3)cc12 [Example 221] | 0.1 to 1
Cc1ncc(-c2ncc(C3CC3)cn2)cc1NC(=O)c1cnc(-c2ccc3c(c2)CC(=O)N3)o1 [Example 361] | 0.1 to 1
Cc1sc(-c2noc([C@H]3C[C@@H]3F)n2)cc1NC(=O)c1cnn2ccc(N3CC4(COC4)C3)cc12 [Example 281-117] | 0.1 to 1
Cc1ccc(-c2noc([C@H]3C[C@@H]3F)n2)cc1NC(=O)c1cnn2ccc(N3CCO[C@H](C)C3)cc12 [Example 214] | < 0.1
Cc1ccc(-c2ncc(C3CC3)cn2)cc1NC(=O)c1cnn2ccc(N3CC4(COC4)C3)cc12 [Example 335] | < 0.1
Cc1ccc(-c2noc([C@H]3C[C@@H]3F)n2)cc1NC(=O)c1cnc(-c2ccc3cn(C)nc3c2)o1 [Example 308-31] | 0.1 to 1
Cc1ccc(-c2noc([C@H]3C[C@H](OC(F)(F)F)C3)n2)cc1NC(=O)c1cnn2ccc(N3CC4(COC4)C3)cc12 [Example 245] | < 0.1
Cc1ccc(-c2noc([C@H]3C[C@@H]3F)n2)cc1NC(=O)c1cnn2cc(-c3ccc(F)cc3)ccc12 [Example 149] | < 0.1
Cc1ncc(-c2ccc3c(C(=O)Nc4cc(-c5noc([C@H]6C[C@@H]6F)n5)ccc4C)cnn3c2)c(C)n1 [Example 169] | 0.1 to 1
Cc1ncc(-c2noc([C@@H]3CN(C(=O)C(C)(F)F)[C@H]3C)n2)cc1NC(=O)c1cnn2ccc(N3CC4(C3)CC(O)(C(F)F)C4)cc12 [Example 281-13] | 0.1 to 1
Cc1ccc(-c2noc([C@H]3C[C@@H]3F)n2)cc1NC(=O)c1cnn(-c2ccccc2)c1 [Example 23] | 0.1 to 1
Cc1ccc(-c2noc([C@H]3C[C@@H]3F)n2)cc1NC(=O)c1cnn2ccc(N3CC4(CCN(CC(F)F)C4)C3)cc12 [Example 185] | < 0.1

Reference: patent US20250059174A1, “Pharmaceutical Compounds and Compositions as C-Kit Kinase Inhibitors” (Enanta Pharmaceuticals, Inc., priority 2023, published 2025)
